Laboratory results taken from PMC6225212, “Synthesis and Pharmacological Evaluation of Novel Silodosin-Based Arylsulfonamide Derivatives as α1A/α1D-Adrenergic Receptor Antagonist with Potential Uroselective Profile” (Molecules : A Journal of Synthetic Chemistry and Natural …, 2018).

Key:
α1D-ARs = biological target: T1, α1D-ARs (Homo sapiens, UniProt P25100); parameters: method as in PMID 27658792; key to α1D Profile: ANT—antagonist; AGO—agonist; details: cited from earlier work
T1 sequence (P25100 1-572): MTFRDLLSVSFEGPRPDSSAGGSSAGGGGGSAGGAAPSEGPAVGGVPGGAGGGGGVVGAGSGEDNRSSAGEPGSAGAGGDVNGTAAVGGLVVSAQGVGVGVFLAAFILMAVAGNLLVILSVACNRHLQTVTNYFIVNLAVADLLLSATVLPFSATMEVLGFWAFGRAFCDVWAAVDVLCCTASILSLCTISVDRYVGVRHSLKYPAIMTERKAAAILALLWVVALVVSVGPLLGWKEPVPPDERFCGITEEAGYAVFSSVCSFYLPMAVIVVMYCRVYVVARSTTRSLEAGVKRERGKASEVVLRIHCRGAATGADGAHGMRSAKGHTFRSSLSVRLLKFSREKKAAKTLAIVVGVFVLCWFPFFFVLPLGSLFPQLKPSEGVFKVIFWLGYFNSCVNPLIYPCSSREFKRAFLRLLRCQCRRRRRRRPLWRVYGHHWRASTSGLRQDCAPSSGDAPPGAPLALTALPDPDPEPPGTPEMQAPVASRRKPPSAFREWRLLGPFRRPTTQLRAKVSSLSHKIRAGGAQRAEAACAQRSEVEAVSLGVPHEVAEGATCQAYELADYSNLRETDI

α1B-ARs = biological target: T2, α1B-ARs (Homo sapiens, UniProt P35368); parameters: method as in PMID 27658792; key to α1B Profile: ANT—antagonist; AGO—agonist; details: cited from earlier work
T2 sequence (P35368 1-520): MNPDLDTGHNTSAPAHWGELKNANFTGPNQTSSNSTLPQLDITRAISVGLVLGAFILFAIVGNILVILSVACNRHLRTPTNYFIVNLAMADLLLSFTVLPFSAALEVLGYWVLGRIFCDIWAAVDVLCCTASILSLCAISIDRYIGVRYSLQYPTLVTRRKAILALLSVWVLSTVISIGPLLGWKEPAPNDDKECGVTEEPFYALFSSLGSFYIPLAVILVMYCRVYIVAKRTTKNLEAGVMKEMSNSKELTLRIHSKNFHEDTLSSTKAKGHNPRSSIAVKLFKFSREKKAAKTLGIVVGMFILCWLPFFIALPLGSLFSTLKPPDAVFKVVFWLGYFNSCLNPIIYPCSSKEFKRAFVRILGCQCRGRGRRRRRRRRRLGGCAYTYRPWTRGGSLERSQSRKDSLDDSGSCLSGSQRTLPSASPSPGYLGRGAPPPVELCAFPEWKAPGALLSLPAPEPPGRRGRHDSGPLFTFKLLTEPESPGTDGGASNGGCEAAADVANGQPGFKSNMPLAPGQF

α2-ARs = biological target: α2-ARs; parameters: method as in PMID 27658792; details: [3H]-Clonidine, rat cerebral cortex; ± SEM; cited from earlier work
[1] = In vitro metabolic stability in rat-liver microsomes (RLM); assay type: in vitro ADME
Experimental: In vitro biotransformation assays of selected compounds 9 and 10 were performed using rat-liver microsomes (RLM), potassium-phosphate buffer, NADPH-regenerating system (NADP, glucose-6-phosphate, glucose-6-phosphate dehydrogenase), and levallorphan as internal standard, according to the previously published procedure. Compound I and the drug tamsulosin were used as reference standard. UPLC/MS analysis (Waters Corporation, Milford, MA, USA) was performed to determine the quantity of the starting material left in solution. The in vitro half-time (t1/2) for test compounds was determined from the slope of the linear regression of ln % parent compound remaining versus incubation time. The calculated t1/2 was incorporated into the following equation to obtain intrinsic clearance: (Clint) = (volume of incubation [µL]/protein in the incubation [mg]) × 0.693/t1/2.
Metabolic stability of tested compound was analyzed using incubation systems, composed of: tested compounds (10 μM), RLMs (microsomes from rat male liver, pooled; 0.2 mg/mL; Sigma Aldrich), NADPH-regenerating system (NADP+, glucose-6-phosphate and glucose-6-phosphate dehydrogenase in 100mM potassium buffer, pH 7.4; all from Sigma Aldrich), and potassium buffer, pH 7.4. […] Firstly, all samples contained incubation mixture (without NADPH-regenerating system) were preincubated in a thermoblock at 37 °C for 10 min. Then reaction was initiated by the addition of NADPH-regenerating system. In control samples NADPH-regenerating system was replaced with potassium buffer. Probes were incubated in thermoblock for 15 and 30 min at 37 °C. After addition of internal standard (levallorphan, 10 μM), the biotransformation process was stopped by addition of perchloric acid (69–72%, by volume). Next, samples were centrifuged (Centrifuge 5427 R, Eppendorf, Hamburg, Germany) and supernatants were analyzed using UPLC/MS (Waters Corporation). All experiments were run in duplicates. Half-life time was evaluated using a nonlinear regression model using Graph Pad Prism software (Graph Pad Software, La Jolla, San Diego, CA, USA) and intrinsic clearance was calculated from the equation Clint = (volume of incubation [μL]/protein in the incubation [mg]) ×∙0.693/t1/2 [33].

α1A-ARs = biological target: T3, α1A-ARs (Homo sapiens, UniProt P35348); parameters: method as in PMID 27658792; key to α1A Profile: ANT—antagonist; AGO—agonist; details: cited from earlier work
T3 sequence (P35348 1-466): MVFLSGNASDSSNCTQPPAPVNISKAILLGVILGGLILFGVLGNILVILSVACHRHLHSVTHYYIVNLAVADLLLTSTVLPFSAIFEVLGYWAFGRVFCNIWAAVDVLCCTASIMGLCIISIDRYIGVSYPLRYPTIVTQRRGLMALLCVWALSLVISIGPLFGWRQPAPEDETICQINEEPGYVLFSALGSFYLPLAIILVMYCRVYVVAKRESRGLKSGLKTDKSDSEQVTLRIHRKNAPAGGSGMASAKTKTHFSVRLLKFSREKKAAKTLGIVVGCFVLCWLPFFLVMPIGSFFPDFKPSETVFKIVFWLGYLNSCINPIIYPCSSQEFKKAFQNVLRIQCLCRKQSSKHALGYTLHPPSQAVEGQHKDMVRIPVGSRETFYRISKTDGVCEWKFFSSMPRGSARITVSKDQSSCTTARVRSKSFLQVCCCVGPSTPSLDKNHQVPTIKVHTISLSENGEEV

Major Metabolic Pathway ([1]; RLM): N-dealkylation | microsomal CLint at 10 μM ([1]; male, rat, rat liver microsomes, pH 7.4, RLM 0.2 mg/mL, compound 10 μM, 37 °C): 87 µL/min/mg | half-life at 10 μM ([1]; male, rat, rat liver microsomes, pH 7.4, RLM 0.2 mg/mL, compound 10 μM, 37 °C, read-out: t½): 40 min
SMILES: CC(C)Oc1ccccc1OCCN1CCC(CNS(=O)(=O)c2cccc(Cl)c2F)CC1 [Compound I]
IC50 (α1D-ARs; antagonist mode): 15.1 nM | α1D Profile (α1D-ARs; functional profile): ANT | IC50 (α1B-ARs; antagonist mode): 42.1 nM | α1B Profile (α1B-ARs; functional profile): ANT | Ki (α2-ARs): 1210 ± 99 nM | IC50 (α1A-ARs; antagonist mode): 11.1 nM | α1A Profile (α1A-ARs; functional profile): ANT ^b
